# Like-named read-outs stand apart in the source and are kept apart here.
# Columns and labels:
# human CLL cells = assay type: cell-based
# BCR-ABL ALL cells = assay: survival of mice transplanted with BCR-ABL ALL cells; assay type: in vivo; settings: for survival extension: treatment at MTD, mice transplanted with BCR-ABL ALL cells
# Protocol: Experimental procedures were approved by the Animal Care and Use Committee of Shanghai Institute of Biochemistry and Cell Biology, Chinese Academy of Sciences. In all, 200 wild-type C57BL/6 mice (6 weeks old, female) were used for determining maximally tolerated dose of CY, and testing CY and other drugs' efficacy in the BCR-ABL ALL model. […] At 7 days postinjection, mice were treated with indicated drugs at their MTDs. Mice were monitored daily for survival after drug treatment. Survival curve and statistical analysis were done using the Prism software. For xenograft H460 model, in all, nude mice (8 weeks old, female) were used to test CY and bendamustine's in vivo efficacy. The numbers of mice used in each experimental group are labeled on Fig4.
# human AML cells = assay: patient derived xenograft mouse model of human AML; settings: done by other collaborators; review file
# NCI60 cell lines = assay: GI50 in the NCI60 cell line panel; assay type: cell-based; settings: Homo sapiens
# Protocol: (§1) Cells were seeded in 96-well plates, treated with different concentrations of drugs for 48 h, and cell viability was analyzed by MTT assays according to manufacturer's protocols. Experiments to determine GI50 with the NCI60 panel cell lines (http://dtp.nci.nih.gov/branches/btb/ivclsp.html) were performed at NCI (Alley et al, [1988]; Shoemaker, [2006]).
# MEFs = assay: GI50 in MEFs; assay type: cell-based
# Protocol: as §1
# HDAC1 = HDAC1 (Homo sapiens, UniProt Q13547); assay: in vitro HDAC1 inhibition assay; assay type: biochemical
# HDAC2 = HDAC2 (Homo sapiens, UniProt Q92769); assay: in vitro HDAC inhibition assay, HDAC2; assay type: biochemical
# HDAC3 = HDAC3 (Homo sapiens, UniProt O15379); assay: in vitro HDAC inhibition assay, HDAC3; assay type: biochemical
# HDAC4 = HDAC4 (Homo sapiens, UniProt P56524); assay: in vitro HDAC inhibition assay, HDAC4; assay type: biochemical
# HDAC6 = molecular target: T1, HDAC6 (Homo sapiens, UniProt Q9UBN7); assay: in vitro HDAC inhibition assay, HDAC6; assay type: biochemical
# T1 sequence (Q9UBN7 1-1215): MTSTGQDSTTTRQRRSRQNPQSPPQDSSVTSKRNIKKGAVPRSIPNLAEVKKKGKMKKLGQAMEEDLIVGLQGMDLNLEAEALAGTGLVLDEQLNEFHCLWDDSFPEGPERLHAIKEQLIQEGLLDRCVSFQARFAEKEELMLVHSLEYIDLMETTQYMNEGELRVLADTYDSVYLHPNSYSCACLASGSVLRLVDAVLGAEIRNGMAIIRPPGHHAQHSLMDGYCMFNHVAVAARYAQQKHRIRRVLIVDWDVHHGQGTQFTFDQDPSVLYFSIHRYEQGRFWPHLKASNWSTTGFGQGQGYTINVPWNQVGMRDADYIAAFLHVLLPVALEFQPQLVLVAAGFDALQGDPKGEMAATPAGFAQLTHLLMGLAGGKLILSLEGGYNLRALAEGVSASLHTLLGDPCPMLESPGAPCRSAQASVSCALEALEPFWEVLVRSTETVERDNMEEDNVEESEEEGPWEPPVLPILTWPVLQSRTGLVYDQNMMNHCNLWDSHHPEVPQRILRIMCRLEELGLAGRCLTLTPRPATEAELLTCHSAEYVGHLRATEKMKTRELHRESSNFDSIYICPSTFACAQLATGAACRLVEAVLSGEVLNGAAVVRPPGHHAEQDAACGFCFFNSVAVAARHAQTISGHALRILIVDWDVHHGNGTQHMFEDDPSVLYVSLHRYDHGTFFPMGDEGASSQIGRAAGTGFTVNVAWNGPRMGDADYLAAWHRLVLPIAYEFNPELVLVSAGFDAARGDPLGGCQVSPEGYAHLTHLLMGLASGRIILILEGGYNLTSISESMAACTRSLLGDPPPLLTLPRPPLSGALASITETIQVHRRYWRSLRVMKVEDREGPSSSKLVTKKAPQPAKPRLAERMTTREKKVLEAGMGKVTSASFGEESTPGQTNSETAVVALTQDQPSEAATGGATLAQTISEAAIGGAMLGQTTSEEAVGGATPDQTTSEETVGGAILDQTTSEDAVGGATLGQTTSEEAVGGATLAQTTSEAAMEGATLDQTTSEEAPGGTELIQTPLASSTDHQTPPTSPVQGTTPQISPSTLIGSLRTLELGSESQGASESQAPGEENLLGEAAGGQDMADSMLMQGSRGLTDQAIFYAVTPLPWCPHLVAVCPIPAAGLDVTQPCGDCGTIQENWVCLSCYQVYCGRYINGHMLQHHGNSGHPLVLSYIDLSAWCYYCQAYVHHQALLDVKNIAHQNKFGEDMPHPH
# [1] = tested on: HDAC activities in H1650 cells; assay: histone acetylation markers by Western blot in H1650 cells; assay type: cell-based; settings: 12 h, 20 μM CY, 20 μM CpdA, 200 μM CpdB, 200 μM Bend
# [2] = tested on: CBP, TIP60, MORF, and MSL1 expression in H1650 cells; assay type: cell-based
# [3] = maximally tolerated dose in mice; settings: female, C57BL/6, mouse, in vivo
# Protocol: (§2) Experimental procedures were approved by the Animal Care and Use Committee of Shanghai Institute of Biochemistry and Cell Biology, Chinese Academy of Sciences. In all, 200 wild-type C57BL/6 mice (6 weeks old, female) were used for determining maximally tolerated dose of CY, and testing CY and other drugs' efficacy in the BCR-ABL ALL model. BCR-ABL cells have been previously described (Williams et al, [2006]). For in vivo experiments, 1 million cells were injected into mice via tail vein (Williams et al, [2006]). At 7 days postinjection, mice were treated with indicated drugs at their MTDs. Mice were monitored daily for survival after drug treatment. Survival curve and statistical analysis were done using the Prism software. For xenograft H460 model, in all, nude mice (8 weeks old, female) were used to test CY and bendamustine's in vivo efficacy. The numbers of mice used in each experimental group are labeled on Fig4.
# [4] = tested on: BCR-ABL Arf−/− murine ALL cells; assay: activity against BCR-ABL ALL cells in vitro; assay type: cell-based
# Protocol: Cell lines were cultured using standard protocols provided by ATCC. Myc Arf^−/− cells were cultured as described (Jiang et al, [2009]). BCR-ABL mouse ALL cells were a kind gift from Dr. Richard Williams. CY190602 and its derivatives compound A and B were synthesized by Dr. Wang's Laboratory (U. New Mexico). Other chemicals were purchased from Selleck, EMD, or VWR. Antibodies against γ-H2AX (Millipore), actin (Sigma), H3K18Ac, H3K9Ac, and H3K56Ac (Cell Signaling) were used for Western blotting.
# as §1
# [5] = tested on: human NSCLC cell line H460; assay: H460 xenograft in nude mice; assay type: in vivo; settings: single dose CY 20, 40, 60 mg/kg; bendamustine 40 mg/kg
# Protocol: as §2
# [6] = viability of healthy primary B cells; assay type: cell-based; settings: human, healthy primary CD19+ B cells from blood donors, 20 μM CY
# From the text: This study was approved by the ethics committee of the University of Cologne (approval 01-163). Blood samples were obtained from patients fulfilling diagnostic criteria for CLL with informed consent according to the Helsinki protocol. Only patients without prior therapy or at least 12 months without prior chemotherapy were included in this study. Fresh blood samples were enriched by applying B-RosetteSep (StemCell Technologies, Vancouver, Canada) to aggregate unwanted cells with erythrocytes and Ficoll-Hypaque (Seromed, Berlin, Germany) density gradient purification resulting in purity > 98% of CD19^+/CD5^+ CLL cells. CLL cells were characterized for CD19, CD5, CD23, FMC7, CD38, ZAP-70, slgM, slgG, CD79a, and CD79b expression on a FACSCanto flow cytometer (BD PharMingen, Heidelberg, Germany). Controls were isolated from healthy blood donors using anti-CD19 MACS beads (Miltenyi, Bergisch Gladbach, Germany) resulting in at least 95% CD19^+ B cells.
# Apoptosis was determined by flow cytometry using Annexin V-FITC/7AAD staining (BD PharMingen) after 72 h. […] The fraction of viable cells was determined by counting annexin V/7-AAD double-negative cells for each individual dosage. Median values were subsequently applied for regression analysis and calculation of the half-maximal dosage effect (IC50). […] IC50 values were determined by fitting data to the Hill equation y = y0 + (axb)/(cb+xb).
# human cancer cell lines = assay: cancer cell killing / MTT viability (LD50); assay type: cell-based
# γ-H2AX in H1650 cells = assay: γ-H2AX Western blot (DNA damage) in H1650 cells; assay type: cell-based; settings: 12 h
# HDAC1-6 = assay: cell-free HDAC activity assays, HDAC1-6 overall; assay type: biochemical; settings: Fig2A and 2B
# [7] = mice; ref according to the literature; cited from earlier work
# [8] = median over NCI60 cell lines, read-out: median growth inhibitor concentration (GI50)
# [9] = H1650 cells, 6 h, bendamustine 350 μM, CY 15 μM, SAHA 10 μM
# Sequence of HDAC1 (Q13547 whole entry): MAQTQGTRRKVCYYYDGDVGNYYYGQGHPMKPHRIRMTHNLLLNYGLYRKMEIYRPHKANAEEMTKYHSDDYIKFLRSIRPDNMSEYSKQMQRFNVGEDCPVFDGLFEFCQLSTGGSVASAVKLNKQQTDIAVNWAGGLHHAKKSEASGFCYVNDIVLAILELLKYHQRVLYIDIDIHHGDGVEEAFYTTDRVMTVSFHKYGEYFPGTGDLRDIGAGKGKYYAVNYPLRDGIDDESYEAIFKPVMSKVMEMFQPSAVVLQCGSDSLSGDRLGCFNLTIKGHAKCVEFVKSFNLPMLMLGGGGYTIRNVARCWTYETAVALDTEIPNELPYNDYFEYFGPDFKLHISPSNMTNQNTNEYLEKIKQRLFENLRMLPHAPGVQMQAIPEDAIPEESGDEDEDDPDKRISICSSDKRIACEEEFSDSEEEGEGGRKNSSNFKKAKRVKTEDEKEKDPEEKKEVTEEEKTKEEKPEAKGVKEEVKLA
# Sequence of HDAC3 (O15379 whole entry): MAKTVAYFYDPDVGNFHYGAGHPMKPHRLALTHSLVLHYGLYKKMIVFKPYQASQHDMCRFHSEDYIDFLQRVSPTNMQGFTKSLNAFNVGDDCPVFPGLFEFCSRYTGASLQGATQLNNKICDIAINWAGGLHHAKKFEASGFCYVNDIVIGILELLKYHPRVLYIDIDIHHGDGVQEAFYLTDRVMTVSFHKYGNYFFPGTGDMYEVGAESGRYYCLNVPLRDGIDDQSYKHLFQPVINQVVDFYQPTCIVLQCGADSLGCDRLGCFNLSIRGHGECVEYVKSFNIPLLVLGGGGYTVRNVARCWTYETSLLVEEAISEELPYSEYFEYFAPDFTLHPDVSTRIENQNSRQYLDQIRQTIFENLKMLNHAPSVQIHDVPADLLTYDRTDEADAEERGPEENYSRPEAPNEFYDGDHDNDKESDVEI
# Sequence of HDAC3 (Q9Y618 395-489 partner limits assumed): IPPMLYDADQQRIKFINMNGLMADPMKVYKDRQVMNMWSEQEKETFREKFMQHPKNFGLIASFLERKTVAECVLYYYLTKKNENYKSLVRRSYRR
# Sequence of HDAC4 (P56524 whole entry): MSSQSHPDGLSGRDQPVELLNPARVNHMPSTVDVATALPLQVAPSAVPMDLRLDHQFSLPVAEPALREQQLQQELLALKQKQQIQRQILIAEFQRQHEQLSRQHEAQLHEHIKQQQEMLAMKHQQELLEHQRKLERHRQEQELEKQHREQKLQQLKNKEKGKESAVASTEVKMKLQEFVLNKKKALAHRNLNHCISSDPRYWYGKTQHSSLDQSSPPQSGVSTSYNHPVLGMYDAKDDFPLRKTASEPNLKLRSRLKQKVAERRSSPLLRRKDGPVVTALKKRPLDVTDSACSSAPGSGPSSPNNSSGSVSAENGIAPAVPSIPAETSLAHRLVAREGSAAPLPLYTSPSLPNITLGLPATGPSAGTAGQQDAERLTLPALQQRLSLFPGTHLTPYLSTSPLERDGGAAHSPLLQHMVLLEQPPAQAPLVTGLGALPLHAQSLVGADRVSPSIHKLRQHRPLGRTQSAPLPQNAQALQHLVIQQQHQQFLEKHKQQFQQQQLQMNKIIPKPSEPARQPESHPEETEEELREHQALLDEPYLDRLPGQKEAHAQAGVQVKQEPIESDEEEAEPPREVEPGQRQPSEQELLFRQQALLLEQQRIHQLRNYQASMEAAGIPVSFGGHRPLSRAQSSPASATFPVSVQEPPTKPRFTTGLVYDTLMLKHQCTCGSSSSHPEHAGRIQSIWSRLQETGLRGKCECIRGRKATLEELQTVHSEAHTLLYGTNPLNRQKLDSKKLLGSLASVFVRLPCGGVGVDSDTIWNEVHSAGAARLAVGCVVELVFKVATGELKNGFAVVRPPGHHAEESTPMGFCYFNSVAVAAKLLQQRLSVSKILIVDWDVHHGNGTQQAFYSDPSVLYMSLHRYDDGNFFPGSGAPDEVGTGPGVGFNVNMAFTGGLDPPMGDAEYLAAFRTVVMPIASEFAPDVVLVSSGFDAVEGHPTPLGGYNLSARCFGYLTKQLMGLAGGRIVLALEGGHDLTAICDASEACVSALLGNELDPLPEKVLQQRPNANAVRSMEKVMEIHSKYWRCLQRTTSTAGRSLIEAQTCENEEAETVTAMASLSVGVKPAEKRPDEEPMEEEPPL
# Sequence of HDAC2 (Q92769 whole entry): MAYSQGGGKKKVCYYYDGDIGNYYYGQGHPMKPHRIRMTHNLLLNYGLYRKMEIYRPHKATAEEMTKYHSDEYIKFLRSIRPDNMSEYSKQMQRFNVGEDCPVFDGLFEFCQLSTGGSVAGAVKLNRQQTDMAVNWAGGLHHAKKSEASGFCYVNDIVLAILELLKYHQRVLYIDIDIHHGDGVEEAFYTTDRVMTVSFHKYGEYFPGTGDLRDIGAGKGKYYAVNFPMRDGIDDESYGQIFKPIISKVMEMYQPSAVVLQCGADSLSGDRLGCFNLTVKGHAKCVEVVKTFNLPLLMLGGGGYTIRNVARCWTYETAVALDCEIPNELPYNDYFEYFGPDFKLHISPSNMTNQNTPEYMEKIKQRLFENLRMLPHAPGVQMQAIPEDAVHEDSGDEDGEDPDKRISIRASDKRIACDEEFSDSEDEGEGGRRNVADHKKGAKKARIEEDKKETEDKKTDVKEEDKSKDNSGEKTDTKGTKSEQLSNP
structure (smiles),measurement,setting,value
Nc1nc(F)nc2c1ncn2[C@@H]1O[C@H](CO)[C@@H](O)[C@@H]1O [fludarabine],CLL cells killed at 100 μM,human CLL cells,about 80%
CC(C)n1nc(-c2cc3cc(O)ccc3[nH]2)c2c(N)ncnc21 [PP242],"survival extension, daily treatment",BCR-ABL ALL cells; daily dose,8 days
"Nc1ccn([C@@H]2O[C@H](CO)[C@@H](O)[C@@H]2O)c(=O)n1 [Cytarabine, reference compound]",effect on AML cells,human AML cells,"didn’t kill AML cells as quickly, or as thoroughly as did CY"
same,effect on mouse CD45+ (hematopoeitc lineage) cells,human AML cells,nearly wiped out CD45+ cells
Cn1c(CCCCCCC(=O)NO)nc2cc(N(CCCl)CCCl)ccc21 [CY190602],GI50,"NCI60 cell lines; average over NCI60 cell lines, read-out: average GI50",3.2 µM
same,GI50,NCI60 cell lines; [8],2.2 µM
same,GI50,MEFs,57 µM
same,IC50,"HDAC1; HDAC1 Assay (plot legend value), Fig 2A upper panel",9 nM
same,IC50,"HDAC1; IC50 of CY, HDAC1, Fig 2A lower panel",17 nM
same,IC50,HDAC2,10 nM
same,IC50,HDAC3,25 nM
same,IC50,HDAC4,6.4 nM
same,IC50,HDAC6,72 nM
same,inhibition of HDAC activities in cancer cells (histone acetylation markers),[1],inhibited HDAC activities
same,"expression of Tip60, CBP, MORF and MSL1",[2]; [9],greatly suppressed
same,MTD,[3],60 mg/kg
same,activity in cultured BCR-ABL ALL cells compared with bendamustine,[4],more active than bendamustine
same,"survival extension compared with cyclophosphamide, doxorubicin, cytarabine, and vincristine",BCR-ABL ALL cells; drugs at MTD,superior to these drugs
same,survival extension,BCR-ABL ALL cells,14 days
same,anticancer activity in H460 xenograft compared with bendamustine,[5],superior to bendamustine
same,CLL cells killed at 5 μM,"human CLL cells; 5 μM, 72 h",nearly all
same,"viability at 72 h, 20 μM",[6],~40%
same,effect on AML cells,human AML cells,nearly eliminated AML cells
same,effect on mouse CD45+ (hematopoeitc lineage) cells,human AML cells,minimal effect
O=C(CCCCCCC(=O)Nc1ccccc1)NO [SAHA],"expression of Tip60, CBP, MORF and MSL1",[2],significant suppression
same,survival extension,BCR-ABL ALL cells,approximately 2 days
Cn1c(CCCCCCC(=O)NO)nc2cc(N(CCO)CCO)ccc21 [compound A],synergy with bendamustine in killing cancer cells,human cancer cell lines; nontoxic dose of Cpd A plus bendamustine,significantly synergized with bendamustine
same,killing of cancer cells,"human cancer cell lines; up to 200 μM, 48 h",very ineffective in killing cancer cells
same,inhibition of HDAC activities in cancer cells (histone acetylation markers),[1],inhibited HDAC activities
same,level of γ-H2AX in bendamustine-treated cells,γ-H2AX in H1650 cells; 100 μM Bend plus 50 μM Cpd A,significantly increased
same,DNA damage (γ-H2AX) by the compound alone,γ-H2AX in H1650 cells; H1650 cells,did not cause DNA damage
Cn1c(CCCCCCC(=O)O)nc2cc(N(CCCl)CCCl)ccc21 [compound B],inhibition of HDAC activities in cancer cells (histone acetylation markers),[1],little HDAC inhibitory activity
same,inhibition of HDAC activities in cancer cells (histone acetylation markers),[1]; listed as CpdB,not
Cn1c(CCCC(=O)O)nc2cc(N(CCCl)CCCl)ccc21 [bendamustine],GI50,NCI60 cell lines; [8],77 µM
same,GI50,NCI60 cell lines; read-out: GI50 for most cancer cell lines of the NCI 60 test,> 100 µM
same,GI50,"MEFs; MEFs, authors' response in review file",~390 µM
same,HDAC inhibition,HDAC1-6,inability to inhibit HDAC
same,inhibition of HDAC activities in cancer cells (histone acetylation markers),[1],not
same,"expression of Tip60, CBP, MORF and MSL1",[2]; [9],not
same,survival extension,BCR-ABL ALL cells,~5 days
same,CLL cells killed at 100 μM,"human CLL cells; 100 μM, 72 h",about 80%
same,MTD,[7],40 mg/kg

# Reference: paper PMC4403045 (EMBO Molecular Medicine, 2015)
